Here are results for 9 molecules from article PMC11765717, “In Vitro Insights into Bacteriocin-Mediated Modulation of Chicken Cecal Microbiota” (International Journal of Molecular Sciences, 2025).

In brackets after ≈: the same amount, converted by molar mass. Like-named read-outs stand apart in the source and are kept apart here. Positions of bridges follow the written chain, without caps; N, C: chain ends. Residues, ends and D or L forms follow the SMILES beside them.

One data set has as its system S. enterica. Also on record: method as in PMID 35543514. The following applies: sensitive strain S. enterica; ref [63]; cited from earlier work. From the text: Table 1 Minimum inhibitory concentration (MIC) of the antimicrobial compounds tested (provided in µg/mL and in µmol/L) and residual activities over time in the cecal fermentation medium, after the introduction of the compounds at 25 (top) or 250 times (bottom) the minimal inhibitory concentration (MIC).

For data set [1], the system named is chicken cecal microbiota. Description: Batch fermentation of chicken cecal microbiota, 16S rRNA gene sequencing. In kind it is cell-based, broiler chickens. To be noted: for Impact on genera / microbiota composition, in words: 24 h of culture; for Beta diversity (PCoA of weighted Unifrac), in words: 24 h of fermentation; for Effect on bacterial classes, in words: 12 h of cecal fermentation; for Abundance of Clostridia, in words: 25 vs 250 x MIC.

The subject of data set [2] is Salmonella enterica subsp. enterica serotype Newport ATCC 6962.
Data set [3] relates to chicken cecal microbiota. As to the kind of experiment: Short-chain fatty acids in batch fermentation supernatant. In kind it is cell-based, broiler chickens. To be noted: 24 h; for Acetate production, in words: 250 times the MIC.
The subject of data set [4] is Salmonella enterica subsp. enterica serotype Newport ATCC 6962. Description: Residual activity in cecal fermentation medium, agar well diffusion. To be noted: over the 24 h of fermentation; agar diffusion tests.
Another data set has as its system C. perfringens. The following applies: sensitive strain C. perfringens; ref [62]; cited from earlier work.
In data set [5] the test system is Streptococcus pyogenes RBL4. Description: Residual activity in cecal fermentation medium, agar well diffusion. In kind it is in vitro ADME. The following applies: over the 24 h of fermentation; based on inhibition diameters. Here is the method:
Sterile Viande Levure (VL) medium (16 mL in 50 mL penicillin bottles), supplemented with Tween 80, bile salts, minerals, vitamins, porcine mucin (2.0 g/L), fructo-oligosaccharide (2.5 g/L), and citrus pectin (2.5 g/L), as described previously, and adjusted to pH 6 with 5 M NaOH, was inoculated with […] fecal slurry (10% inoculum, w/v). The antimicrobial compound was added in a volume of 1 mL to obtain 25 or 250 times the minimal inhibitory concentration (Table 1).
To ensure anaerobic conditions, the bottles were inoculated and sealed in an oxygen-free chamber. They were incubated at 41 °C and 80 rpm on an orbital shaker for up to 24 h. For each experimental treatment, samples were collected at 0, 12, and 24 h and kept at −80 °C until analysis.
The inhibitory activity of each antimicrobial agent was assessed qualitatively in terms of inhibition zones around agar wells. Briefly, 80 μL of sample was added to wells in pour plates (25 mL) seeded with 250 µL of overnight culture of indicator strain. Following 18 h of incubation at the appropriate temperature, inhibition diameters were measured. Photographs were taken using ChemiDoc XRS (Bio-Rad, Hercules, CA, USA).

In a further data set the test system is L. ivanovii. Also noted: method as in PMID 35170996. To be noted: sensitive strain L. ivanovii; ref [64]; cited from earlier work.
The subject of a further data set is Listeria ivanovii HPB28. Description: Residual activity in cecal fermentation medium, agar well diffusion. The following applies: over the 24 h of fermentation; agar diffusion tests.

In the case of `O=C(O)c1cn(C2CC2)c2cc(N3CCNCC3)c(F)cc2c1=O` [Ciprofloxacin], in the data set on S. enterica, the “MIC (µM)” value is 0.60 µM (≈ 0.199 µg/mL) and the “MIC (µg/mL)” value is given as 0.19 µg/mL (≈ 0.573 µM). Also, the “Impact on genera / microbiota composition, in words” value with chicken cecal microbiota [1] is “impacted Gram-positive (Clostridia, Enterococcus and Streptococcus) as well as Gram-negative bacteria (Escherichia/Shigella and Gallibacterium)”. In addition, the “Genera Enterococcus, in words” value in the data set with chicken cecal microbiota [1] (after 24 h) is given as “reduced”. For the same molecule, the “Residual Activity 0 h” value in data set [2] is “+++ +++”.
Turning to `CC[C@H](C)[C@H](NC(=O)CNC(=O)[C@@H](NC(=O)[C@H](Cc1ccccc1)NC(=O)[C@H](Cc1ccc(O)cc1)NC(=O)[C@@H]1CCC(=O)NCC(=O)NCC(=O)N[C@@H](C)C(=O)NCC(=O)N[C@@H](Cc2cnc[nH]2)C(=O)N[C@@H](C(C)C)C(=O)N2CCC[C@H]2C(=O)N1)C(C)C)C(=O)NCC(=O)N[C@H](C(=O)N1CCC[C@H]1C(=O)N[C@H](C(=O)N[C@@H](CO)C(=O)N[C@@H](Cc1ccccc1)C(=O)N[C@@H](Cc1ccc(O)cc1)C(=O)NCC(=O)O)[C@@H](C)CC)[C@@H](C)O` [Microcin J25] (GGAGHVPEYFVGIGTPISFYG-OH; lactam N-8), in data set [2], the “Stability of inhibitory activity in batch fermentation, in words” value (“Stability of inhibitory activity” for short) was “significant inhibitory activity at 24 h”.
Turning to `CO[C@H]1/C=C/O[C@@]2(C)Oc3c(C)c(O)c4c(O)c(c(/C=N/N5CCN(C)CC5)c(O)c4c3C2=O)NC(=O)/C(C)=C\C=C\[C@H](C)[C@H](O)[C@@H](C)[C@@H](O)[C@@H](C)[C@H](OC(C)=O)[C@@H]1C` [Rifampicin], in the data set on S. enterica, the “MIC (µM)” value is 0.47 µM (≈ 0.387 µg/mL) and the “MIC (µg/mL)” value was 0.39 µg/mL (≈ 0.474 µM). For the same molecule, the “Acetate production, in words” value in the data set on chicken cecal microbiota [3] was “reached maximal ranges”. For the same molecule, the “Relative abundance of Bacteroidia” value with chicken cecal microbiota [1] (24 h, concentrations not assigned) stood at 0.02. Also, in the data set with chicken cecal microbiota [1], the “Impact on genera / microbiota composition, in words” value is “mainly impacted the genera Bacteroides and Parabacteroides”; the “Beta diversity (PCoA of weighted Unifrac), in words” value is “tended to cluster separately”. The “Genera Enterococcus, in words” value in the data set on chicken cecal microbiota [1] (after 24 h, lowest concentration) was “reduced”.
On to `CN(C)[C@@H]1C(O)=C(C(N)=O)C(=O)[C@@]2(O)C(O)=C3C(=O)c4c(O)cccc4[C@@](C)(O)[C@H]3C[C@@H]12` [Tetracycline], for which, in the data set on chicken cecal microbiota [1], the “Impact on genera / microbiota composition, in words” value was “mainly affected the Gram-negative bacteria Gallibacterium and the Gram-positive bacteria Phascolarctobacterium”. Moreover, the “Genera Enterococcus, in words” value in the data set with chicken cecal microbiota [1] (after 24 h) is listed as “reduced”. Further, the “Residual Activity 6 h” value in [2] is on record as “+++ +++”. The “Stability of inhibitory activity” value in [4] was “remained highly active”.
Bacitracin: the “Acetate production, in words” value in the data set with chicken cecal microbiota [3] is given as “reached maximal ranges”. Also, the “Butyrate levels, in words” value with chicken cecal microbiota [3] (UHPLC-UV 210 nm) was “significant decrease”. In addition, in the data set on chicken cecal microbiota [1], the “Effect on bacterial classes, in words” value is on record as “dose-dependent effects”; the “Impact on genera / microbiota composition, in words” value was “mainly impacted Streptococcus and Ruminococcus together with different Clostridia (Lachnoclostridium, Erysipelatoclostridium, and Oscillibacter), while promoting the genera Escherichia/Shigella”. Also, the minimum inhibitory concentration (MIC) in the data set on C. perfringens was 1.50 µg/mL. Moreover, the “Stability of inhibitory activity” value in [5] is “least stable”.
On to Colistin, for which, in the data set on S. enterica, the “MIC (µM)” value is listed as 0.69 µM and the “MIC (µg/mL)” value is on record as 0.80 µg/mL. The “Butyrate levels, in words” value with chicken cecal microbiota [3] (highest concentration) is “tended to decrease”. In the data set on chicken cecal microbiota [1], the “Relative abundance of Escherichia, in words” value is “dropped”; the “Abundance of Clostridia, in words” value is on record as “dose-dependent decrease”; the “Effect on bacterial classes, in words” value was “dose-dependent effects”; the “Impact on genera / microbiota composition, in words” value was “strongly impaired Escherichia/Shigella together with other Gram-negative bacteria (Gallibacterium and Butyricimonas)”. Also, in the data set on chicken cecal microbiota [1] (25× MIC), the “Relative abundance of Gammaproteobacteria” value came to 0.03. In the data set on chicken cecal microbiota [1] (after 12 h, compared to bacitracin, rifampicin, tetracycline, MccE492 and nisin), the “Alpha diversity (Shannon entropy), in words” value (“Alpha diversity” below) is listed as “lower alpha diversity”. Moreover, the “Alpha diversity” value in the data set on chicken cecal microbiota [1] (after 24 h) is listed as “lowest alpha diversity”. In addition, in [2], the “Residual Activity 0 h” value is listed as “++ ++”, the “Residual Activity 6 h” value is “++ ++”, the “Residual Activity 12 h” value is “++ ++” and the “Residual Activity 24 h” value is recorded as “++ ++”.
In the case of Nisin Z, in the data set on chicken cecal microbiota [3], the “Acetate production, in words” value was “reached maximal ranges”. Besides, the “Butyrate levels, in words” value in the data set with chicken cecal microbiota [3] (lowest concentration) is “tended to decrease”. Moreover, in the data set with chicken cecal microbiota [1], the “Abundance of Clostridia, in words” value is “dose-dependent decrease”; the “Effect on bacterial classes, in words” value is given as “dose-dependent effects”; the “Impact on genera / microbiota composition, in words” value is recorded as “had the most impact on microbiota composition”; the “Beta diversity (PCoA of weighted Unifrac), in words” value is “tended to cluster separately”. Moreover, the “Genera Enterococcus, in words” value in the data set with chicken cecal microbiota [1] (after 24 h) is given as “reduced”. Moreover, in the data set with chicken cecal microbiota [1] (t0, as compared to control), the “Alpha diversity” value is recorded as “highest diversity”. Further, in the data set on L. ivanovii, the “MIC (µM)” value is 0.18 µM and the “MIC (µg/mL)” value is given as 1.56 µg/mL.
Take “Pediocin PA-1 (M31L) (KYYGNGVTCGKHSCSVDWGKATTCIINNGALAWATGGHQGNHKC; UniProt P29430 19-62, looked up, variant M31L)”: the “Butyrate levels, in words” value in the data set with chicken cecal microbiota [3] (lowest concentration) is “tended to decrease”. In the data set on chicken cecal microbiota [1], the “Effect on bacterial classes, in words” value is “dose-dependent effects” and the “Impact on genera / microbiota composition, in words” value is recorded as “moderate effect”. In addition, the “Genera Enterococcus, in words” value in the data set with chicken cecal microbiota [1] (after 24 h, highest concentration) was “reduced”. The “Stability of inhibitory activity” value in the data set with Listeria ivanovii HPB28 is “weak activity”.

B1: Microcin E492 (peptide, UniProt Q9Z4N4 16-99, looked up)
Microcin E492: GETDPNTQLLNDLGNNMAWGAALGAPGGLGSAALGAAGGALQTVGQGLIDHGPVNVPIPVLIGPSWNGSGSGYNSATSSSGSGS
notes: 84 aa siderophore peptide produced by Klebsiella pneumoniae, produced heterologously in E. coli MC4100
Regarding B1, in the data set on S. enterica, the “MIC (µM)” value was 0.18 µM and the “MIC (µg/mL)” value is recorded as 1.56 µg/mL. In addition, the “Impact on genera / microbiota composition, in words” value in the data set with chicken cecal microbiota [1] is “only minor effects”. Further, the “Genera Enterococcus, in words” value in the data set with chicken cecal microbiota [1] (after 24 h) is “reduced”. Further, the “Alteration in the relative abundance of the identified taxa, in words” value in the data set on chicken cecal microbiota [1] (class level) is reported as “neither MccJ25 nor MccE492 induced a statistically significant alteration”. For the same molecule, the “Alpha diversity” value with chicken cecal microbiota [1] (t0, as compared to control) is recorded as “highest diversity”.
